Experimental data reported in patent US20240408211A1, “COMPOSITIONS AND METHODS OF AMELIORATING AVERSIVENESS OF AVERSIVE STIMULI BY INHIBITION OF PURINERGIC RECEPTORS” (Monell Chemical Senses Center, priority 2021, published 2024).
Read-outs that look alike come from different tables or passages of the source.

Key:
[1] = clinical trial; cited from earlier work
[2] = in vivo; cited from earlier work
rats = conditions: cited from earlier work
P2X2/3 = target: T1, P2X2/3 (Homo sapiens, UniProt P56373+Q9UBL9); test: P2X2/3 stable HEK293 cell lines responding to α,β-meATP (screening assay); type: cell-based
T1 construct: expressed in transfected cells; host or cells: HEK293
T1 sequence (Q9UBL9 1-471): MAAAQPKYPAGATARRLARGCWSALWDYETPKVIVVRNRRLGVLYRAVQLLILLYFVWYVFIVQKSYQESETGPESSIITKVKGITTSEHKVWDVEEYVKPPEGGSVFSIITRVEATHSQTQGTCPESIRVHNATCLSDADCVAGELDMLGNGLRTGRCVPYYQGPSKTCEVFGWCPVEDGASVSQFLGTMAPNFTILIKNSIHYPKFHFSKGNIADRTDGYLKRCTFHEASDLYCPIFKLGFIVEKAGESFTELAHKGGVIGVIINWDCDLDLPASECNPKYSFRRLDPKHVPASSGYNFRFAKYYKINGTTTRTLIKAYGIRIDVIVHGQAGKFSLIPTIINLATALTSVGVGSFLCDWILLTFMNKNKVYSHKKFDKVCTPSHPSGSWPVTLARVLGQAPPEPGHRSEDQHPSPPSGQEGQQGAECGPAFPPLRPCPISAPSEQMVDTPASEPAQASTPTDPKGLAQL
T1 sequence (P56373 1-397): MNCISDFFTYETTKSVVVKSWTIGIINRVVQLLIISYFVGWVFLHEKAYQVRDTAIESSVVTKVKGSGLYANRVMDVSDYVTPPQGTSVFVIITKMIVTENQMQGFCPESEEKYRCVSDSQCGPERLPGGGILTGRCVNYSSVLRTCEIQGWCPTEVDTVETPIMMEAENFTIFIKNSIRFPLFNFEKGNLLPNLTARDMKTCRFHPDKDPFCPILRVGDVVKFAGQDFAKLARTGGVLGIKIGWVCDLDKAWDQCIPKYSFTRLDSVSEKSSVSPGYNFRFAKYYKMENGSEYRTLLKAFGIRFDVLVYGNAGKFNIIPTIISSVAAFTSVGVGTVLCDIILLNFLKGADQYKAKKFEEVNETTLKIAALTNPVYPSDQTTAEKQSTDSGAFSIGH
Experimental: In this study, we built stable cell lines expressing P2X2/3 in HEK293 cells via transfection with either P2X2-Neo or P2X3-Zeo constructs, following which selection was performed using Zeocin, G418. Picked clones were grown out from single cells (cultured continuously in the presence of Zeocin and G418) using cloning rings.
The resulted stable cell lines are used for characterizing putative taste-blockers.

patients = conditions: cited from earlier work

Experimental for humans: In some experiments, we used a regimen of two 1-minute rinses with 500 μM AF-353 composition (i.e., oral topical administration).
In this study, we tested an AF-353 composition in humans as an oral rinse after receiving IRB approval for its use. First, we tested rinsing 100 μM (0.04 mg/mL) orally for 2 minutes as 4×30 sec rinses with expectoration. We tested before and after sour, bitter, sweet, and salty solutions (quinine HCl, NaCl, Praziquantal, sucrose, CO2).
Next, we tested rinsing 500 μM (0.2 mg/mL) AF-353 for two minutes, in 2×1 min increment rinses with expectoration.

Structure (SMILES): Cc1cnc(-c2cc(O[C@@H]3CCOC3)cc(C(=O)N[C@H](C)c3cnc(C(F)(F)F)nc3)c2)s1 [eliapixant]
- taste-related adverse events (primarily dysgeusia) [1]: caused taste-related adverse events
- effects on ratings of taste intensity measured using taste strips [2]: no concerted effects

Structure (SMILES): CNC(=O)c1cc(F)c(-c2nc3cc(C)ccn3c2C[C@@H]2CCCN(C(=O)OC)C2)c(F)c1 [BLU-5937, Methyl (S)-3-((2-(2,6-difluoro-4-(methylcarbamoyl)phenyl)-7-methylimidazo[1,2-a]pyridin-3-yl)methyl)piperidine-1-carboxylate]
- influence on taste (rats; rat, 10-20 mg/kg intraperitoneally): did not influence taste
- behaviour towards 0.3 mM quinine hydrochloride in two-bottle choice (rats; rats, 10 or 20 mg/kg ip, 15-min test): avoided the quinine

Structure (SMILES): O=C(NCC12CC3CC(CC(C3)C1)C2)c1cc(CCCNCCCO)ccc1Cl [AZD-9056]
- taste block (humans; various concentration, negative control composition): did not block taste

Structure (SMILES): Nc1ncnc2c1ncn2[C@@H]1O[C@H](COP(=O)(O)CP(=O)(O)OP(=O)(O)O)[C@@H](O)[C@H]1O [α,β-meATP]
- IC50 (P2X2/3; P2X2/3 stable Line 2): 2010 nM
- IC50 (P2X2/3; P2X2/3 stable Line 6): 2100 nM
- IC50 (P2X2/3; P2X2/3 stable Line 9): 3930 nM
- IC50 (P2X2/3; P2X2/3 stable Line 12): 1780 nM
- IC50 (P2X2/3; P2X2/3 stable Line 24): 2760 nM

Structure (SMILES): COc1cc(C(C)C)c(Oc2cnc(N)nc2N)cc1S(N)(=O)=O [AF-219, 5-[(2,4-diaminopyrimidin-5-yl)oxy]-2-methoxy-4-(propan-2-yl)benzene-1-sulfonamide]
- taste block (humans; 500 μM, preliminary test): did not block taste
- taste disturbances (patients; 600 mg twice daily): taste disturbances in all patients tested
- taste disturbances (patients; doses as low as 7.5-50 mg twice daily): also cause taste disturbances, albeit less severe
